Laboratory results taken from ChEMBL document CHEMBL3885861, “Open TG-GATES”.

Species: Rattus norvegicus
Assay: Open TG-GATES - Regimen: Daily Repeat
Format: toxicity, organism-based, Sprague-Dawley
Parameters: regimen Daily Repeat, gender Male, age 6 weeks
Conditions: in vivo, po, 5 mg/kg, route gavage, dose level Low; for APTT / Bas / Eos / Fbg / Hb / Ht / Lym / MCH / MCHC / MCV / Mono / Neu / PT / Plat / RBC / Ret / WBC: tissue Blood; for KIDNEY_L / KIDNEY_R / KIDNEY_TOTAL: tissue Kidney; for LIVER: tissue Liver; for A/G / ALP / ALT / AST / BUN / CRE / Ca / Cl / DBIL / GLC / IP / K / LDH / Na / PL / RALB / TBIL / TC / TG / TP / gamma-GTP: tissue Plasma

CC1=C(CC(=O)O)c2cc(F)ccc2/C1=C\c1ccc([S+](C)[O-])cc1 (configuration not stated)
TERMINAL_BW (72 h, time 3 day): 233.7 g | APTT (72 h, time 3 day): 15.8 s | Bas (72 h, time 3 day): 0% | Eos (72 h, time 3 day): 1% | Fbg (72 h, time 3 day): 306.2 mg/dL | Hb (72 h, time 3 day): 14.4 g/dL | Ht (72 h, time 3 day): 42.7% | Lym (72 h, time 3 day): 72.4% | MCH (72 h, time 3 day): 21.2 pg | MCHC (72 h, time 3 day): 33.8% | MCV (72 h, time 3 day): 62.7 fL | Mono (72 h, time 3 day): 2.4% | Neu (72 h, time 3 day): 23.8% | PT (72 h, time 3 day): 13.7 s | Plat (72 h, time 3 day): 128.2 x10_4/uL | RBC (72 h, time 3 day): 681.2 x10_4/ul | Ret (72 h, time 3 day): 6.8% | WBC (72 h, time 3 day): 91.3 x10_2/uL | KIDNEY_L (72 h, time 3 day): 1 g | KIDNEY_R (72 h, time 3 day): 1 g | KIDNEY_TOTAL (72 h, time 3 day): 1.9 g | LIVER (72 h, time 3 day): 11.2 g | A/G (72 h, time 3 day): 0.9 | ALP (72 h, time 3 day): 1483.6 IU/L | ALT (72 h, time 3 day): 40.6 IU/L | AST (72 h, time 3 day): 67.8 IU/L | BUN (72 h, time 3 day): 15.2 mg/dL | CRE (72 h, time 3 day): 0.2 mg/dL | Ca (72 h, time 3 day): 11.1 mg/dL | Cl (72 h, time 3 day): 106.2 meq/L | DBIL (72 h, time 3 day): 0.01 mg/dL | GLC (72 h, time 3 day): 177 mg/dL | IP (72 h, time 3 day): 7.3 mg/dL | K (72 h, time 3 day): 4.2 meq/L | LDH (72 h, time 3 day): 76 IU/L | Na (72 h, time 3 day): 142 meq/L | PL (72 h, time 3 day): 168.2 mg/dL | RALB (72 h, time 3 day): 2.7 g/dL | TBIL (72 h, time 3 day): 0.018 mg/dL | TC (72 h, time 3 day): 88 mg/dL | TG (72 h, time 3 day): 121.8 mg/dL | TP (72 h, time 3 day): 5.6 g/dL | gamma-GTP (72 h, time 3 day): 1.2 IU/L | TERMINAL_BW ([…], time 7 day): 272.8 g | TERMINAL_BW ([…], time 14 day): 329.4 g | TERMINAL_BW ([…], time 28 day): 403.3 g | APTT ([…], time 7 day): 18.1 s | Bas ([…], time 7 day): 0% | Eos ([…], time 7 day): 1% | Fbg ([…], time 7 day): 300.2 mg/dL | Hb ([…], time 7 day): 14.2 g/dL | Ht ([…], time 7 day): 41.6% | Lym ([…], time 7 day): 79% | MCH ([…], time 7 day): 21.3 pg | MCHC ([…], time 7 day): 34.2% | MCV ([…], time 7 day): 62.3 fL | Mono ([…], time 7 day): 2% | Neu ([…], time 7 day): 17.4% | PT ([…], time 7 day): 13.7 s | Plat ([…], time 7 day): 134 x10_4/uL | RBC ([…], time 7 day): 667.8 x10_4/ul | Ret ([…], time 7 day): 5.8% | WBC ([…], time 7 day): 93.6 x10_2/uL | APTT ([…], time 14 day): 17.3 s | Bas ([…], time 14 day): 0% | Eos ([…], time 14 day): 1% | Fbg ([…], time 14 day): 321 mg/dL | Hb ([…], time 14 day): 15.5 g/dL | Ht ([…], time 14 day): 45.7% | Lym ([…], time 14 day): 77.2% | MCH ([…], time 14 day): 21.1 pg | MCHC ([…], time 14 day): 34% | MCV ([…], time 14 day): 62.1 fL | Mono ([…], time 14 day): 2.2% | Neu ([…], time 14 day): 18.6% | PT ([…], time 14 day): 13.8 s | Plat ([…], time 14 day): 123.9 x10_4/uL | RBC ([…], time 14 day): 737.2 x10_4/ul | Ret ([…], time 14 day): 4% | WBC ([…], time 14 day): 93.7 x10_2/uL | APTT ([…], time 28 day): 17.8 s | Bas ([…], time 28 day): 0% | Eos ([…], time 28 day): 1.4% | Fbg ([…], time 28 day): 292 mg/dL | Hb ([…], time 28 day): 15.4 g/dL | Ht ([…], time 28 day): 46.5% | Lym ([…], time 28 day): 79% | MCH ([…], time 28 day): 18.6 pg | MCHC ([…], time 28 day): 33.1% | MCV ([…], time 28 day): 56.4 fL | Mono ([…], time 28 day): 2% | Neu ([…], time 28 day): 17.4% | PT ([…], time 28 day): 12.8 s | Plat ([…], time 28 day): 112.3 x10_4/uL | RBC ([…], time 28 day): 826.8 x10_4/ul | Ret ([…], time 28 day): 2.6% | WBC ([…], time 28 day): 97.8 x10_2/uL | KIDNEY_L ([…], time 7 day): 1.2 g | KIDNEY_R ([…], time 7 day): 1.2 g | KIDNEY_TOTAL ([…], time 7 day): 2.3 g | KIDNEY_L ([…], time 14 day): 1.3 g | KIDNEY_R ([…], time 14 day): 1.3 g | KIDNEY_TOTAL ([…], time 14 day): 2.5 g | KIDNEY_L ([…], time 28 day): 1.4 g | KIDNEY_R ([…], time 28 day): 1.4 g | KIDNEY_TOTAL ([…], time 28 day): 2.8 g | LIVER ([…], time 7 day): 13.1 g | LIVER ([…], time 14 day): 14.3 g | LIVER ([…], time 28 day): 16.6 g | A/G ([…], time 7 day): 0.9 | ALP ([…], time 7 day): 1462.4 IU/L | ALT ([…], time 7 day): 37.6 IU/L | AST ([…], time 7 day): 67.4 IU/L | BUN ([…], time 7 day): 17.6 mg/dL | CRE ([…], time 7 day): 0.2 mg/dL | Ca ([…], time 7 day): 11 mg/dL | Cl ([…], time 7 day): 104.2 meq/L | DBIL ([…], time 7 day): 0.012 mg/dL | GLC ([…], time 7 day): 183.6 mg/dL | IP ([…], time 7 day): 6.4 mg/dL | K ([…], time 7 day): 4.2 meq/L | LDH ([…], time 7 day): 98 IU/L | Na ([…], time 7 day): 140.6 meq/L | PL ([…], time 7 day): 156.6 mg/dL | RALB ([…], time 7 day): 2.7 g/dL | TBIL ([…], time 7 day): 0.022 mg/dL | TC ([…], time 7 day): 78.8 mg/dL | TG ([…], time 7 day): 122.4 mg/dL | TP ([…], time 7 day): 5.8 g/dL | gamma-GTP ([…], time 7 day): 1 IU/L | A/G ([…], time 14 day): 0.9 | ALP ([…], time 14 day): 1448 IU/L | ALT ([…], time 14 day): 40 IU/L | AST ([…], time 14 day): 65.6 IU/L | BUN ([…], time 14 day): 16.4 mg/dL | CRE ([…], time 14 day): 0.2 mg/dL | Ca ([…], time 14 day): 11 mg/dL | Cl ([…], time 14 day): 105.4 meq/L | DBIL ([…], time 14 day): 0.01 mg/dL | GLC ([…], time 14 day): 177.2 mg/dL | IP ([…], time 14 day): 6.2 mg/dL | K ([…], time 14 day): 3.6 meq/L | LDH ([…], time 14 day): 62.4 IU/L | Na ([…], time 14 day): 143 meq/L | PL ([…], time 14 day): 163 mg/dL | RALB ([…], time 14 day): 2.8 g/dL | TBIL ([…], time 14 day): 0.044 mg/dL | TC ([…], time 14 day): 74.6 mg/dL | TG ([…], time 14 day): 153.8 mg/dL | TP ([…], time 14 day): 6 g/dL | gamma-GTP ([…], time 14 day): 1 IU/L | A/G ([…], time 28 day): 0.8 | ALP ([…], time 28 day): 1234.6 IU/L | ALT ([…], time 28 day): 34.4 IU/L | AST ([…], time 28 day): 63.8 IU/L | BUN ([…], time 28 day): 17.4 mg/dL | CRE ([…], time 28 day): 0.3 mg/dL | Ca ([…], time 28 day): 10.6 mg/dL | Cl ([…], time 28 day): 103.8 meq/L | DBIL ([…], time 28 day): 0.014 mg/dL | GLC ([…], time 28 day): 187 mg/dL | IP ([…], time 28 day): 6.4 mg/dL | K ([…], time 28 day): 3.6 meq/L | LDH ([…], time 28 day): 72.8 IU/L | Na ([…], time 28 day): 142.8 meq/L | PL ([…], time 28 day): 164.8 mg/dL | RALB ([…], time 28 day): 2.8 g/dL | TBIL ([…], time 28 day): 0.08 mg/dL | TC ([…], time 28 day): 77.8 mg/dL | TG ([…], time 28 day): 195 mg/dL | TP ([…], time 28 day): 6.4 g/dL | gamma-GTP ([…], time 28 day): 1 IU/L
